# “Also recorded” adds a separate entry of the source.
# Key:
# [1] = test system: dentate gyrus of NPAS3-deficient mice; assay: NPAS3-deficient mice: neurogenesis, apoptosis, morphology and electrophysiology of the dentate gyrus; format: in vivo, mouse (npas3−/−)
# Description: FIG. 14: Example 45 Compound has pro-neurogenic or neuroprotective efficacy in the dentate gyrus of NPAS3-deficient animals. Six 12 week old npas3^−/− mice were orally administered vehicle or Example 45 Compound (20 mg/kg/d) for 12 days, and also injected daily with BrdU (50 mg/kg). At the end of day 12, mice were sacrificed and tissue was stained for BrdU and doublecortin (DCX).
# Apoptosis in NPAS3-deficient animals was inhibited by treatment with Example 45 Compound (20 mg/kg/d, p.o., for 12 days), whereas analogous treatment with vehicle alone had no effect. Images shown are representative of 10-12 sections evaluated per animal, with 3-5 […] male NPAS3-deficient mice per group.
# Armed with these genotype- and region-specific deficits in both neuron morphology and electrophysiological activity, whether prolonged administration of Example 45 Compound might favorably repair either deficit in NPAS3-deficient animals was tested. […] Following oral gavage of pregnant female mice, 14 day embryos were recovered, dissected and processed by acetonitrile:water extraction so that Example 45 Compound levels could be measured in the embryonic brain. Daily administration of 20 mg/kg of Example 45 Compound to pregnant females yielded appreciable levels of the compound in the brain tissue of developing embryos. It was similarly observed that oral administration of the compound to lactating females led to delivery of Example 45 Compound to the brain tissue of weanling pups. […] Finally, it was observed that daily IP administration of Example 45 Compound to weaned pups at 20 mg/kg was sufficient to yield brain levels of Example 45 Compound at or above the level required to enhance adult neurogenesis.
# Female mice heterozygous at the NPAS3 locus were mated to heterozygous males. Two weeks post-mating, females were given a daily oral gavage of either 20 mg/kg of Example 45 Compound or vehicle-only formula. Dosing was continued throughout the last trimester of pregnancy, as well as the two week post-natal period of lactation. Following weaning, pups were given a daily IP dose of either 20 mg/kg Example 45 Compound or vehicle control. At about 7 weeks of age, mice were switched to oral gavage delivery of the same dose of Example 45 Compound. When mice were 3 months of age they were sacrificed and brain tissue was dissected and subjected to either Golgi-Cox staining or electrophysiological recording. […] The corresponding electrophysiological deficit in CA1 region of the hippocampus, however, was not affected (FIG. 13B), underscoring the specificity of Example 45 Compound to improving functioning of the dentate gyrus in this animal model.
# Recognizing that the reduced thickness of the granular layer of the dentate gyrus in NPAS3-deficient animals could be attributed to elevated levels of apoptosis of newborn hippocampal neural precursor cells, the effect of Example 45 Compound treatment on apoptosis in the hippocampus of NPAS3-deficient animals was examined through immunohistochemical staining of cleaved caspase 3 (CCSP3). […] It is thereby proposed that Example 45 Compound facilitated repair of the granular layer of the dentate gyrus in NPAS3-deficient mice by ameliorating a genotype-specific exacerbation of programmed cell death.
# [2] = target: β-secretase (BACE1) (Homo sapiens, UniProt P56817); conditions: Asso V., et al. (2008) Chem Med Chem 3:1530-1534; cited from earlier work
# [3] = test system: G93A-SOD1 transgenic mice; assay: G93A-SOD1 model of ALS, treatment from 40 days of age; format: in vivo, mouse
# Description: FIG. 24A, FIG. 24B, FIG. 24C and FIG. 24D. Example 45 Compound (P7C3) Provides Therapeutic Benefit in Animal Model of Amyotrophic Lateral Sclerosis (ALS). Female G93A SOD1 mice (n=30 in each group, with all mice sibling matched across treatment groups) were treated with either vehicle or P7C3 (10 mg/kg i.p. twice daily) starting at 40 days of age. […] This score is determined as follows: ‘0’=full extension of hind legs away from lateral midline when the test mouse is suspended by its tail, and can hold this for 2 seconds, suspended 2-3 times; ‘1’=collapse or partial collapse of leg extension towards lateral midline (weakness) or trembling of hind legs during tail suspension; ‘2’=toes curl under at least twice during walking of 12 inches, or any part of foot drags along cage bottom/table; ‘3’=rigid paralysis or minimal joint movement, foot not being used for forward motion; and ‘4’=mouse cannot right itself within 30 seconds from either side. With further disease progression, vehicle-treated mice show the expected decline in retention time on the accelerating rotarod, with retention time averaged across 4 trials (FIG. 24C, open bars). P7C3-treated mice, however, show a consistent trend towards improved performance on this task after onset of disease (FIG. 24C, filled bars), with statistically significant improvement on days 131, 138 and 145 (*, p<0.001, Student's t Test). All graphical data shown above is mean+/−SEM, with statistical analysis conducted using the Student's t Test). As another means of disease progression, walking gait was evaluated. […] Front paws are dipped in red ink, and back paws are dipped in black ink. […] All analysis was conducted blind to treatment group.
# P7C3 was intraperitoneally administered to female G93A-SOD1 transgenic mice using a treatment paradigm of 10 mg/kg P7C3 i.p. twice a day, compared to vehicle, starting at 40 days of age. This treatment scheme was selected based on standard protocols for initial proof of concept screens in these mice. To control for transgene copy number, mice are sibling matched between treatment groups, as per standard protocol. After initiation of P7C3 or vehicle treatment, date of onset of illness is determined by peak weight, and initial progression of disease is defined as the day at which mice fall to 10% below their maximum weight. Mice are also assessed daily by a standard determination of neurological severity score, with a score of 2 or worse for two consecutive days serving as an additional marker of illness progression. This score is determined blind to treatment group with the scoring system described in the legend for the figure. […]
# As an initial test of efficacy in this disease model, we intraperitoneally administered P7C3 to female G93A-SOD1 transgenic mice using a treatment paradigm of 20 mg/kg/day P7C3, with vehicle administered to siblings, starting at 40 days of age. […] To control for transgene copy number, mice were sibling matched between treatment groups, as per standard protocol, and quantitative PCR was performed to ensure that the copy number was maintained within the normal range. After initiation of P7C3 or vehicle treatment, date of onset of illness was determined by peak weight, and initial progression of disease was defined as the day at which mice fell to 10% below their maximum weight. Mice were also assessed daily by a standard measure of neurological severity score ranging from 0-4, with a higher number reflecting greater neurologic impairment. […]
# [4] = 10 mg/kg i.p. twice a day from 40 days of age
# Chain of β-secretase (BACE1) (P56817 46-501, species assumed): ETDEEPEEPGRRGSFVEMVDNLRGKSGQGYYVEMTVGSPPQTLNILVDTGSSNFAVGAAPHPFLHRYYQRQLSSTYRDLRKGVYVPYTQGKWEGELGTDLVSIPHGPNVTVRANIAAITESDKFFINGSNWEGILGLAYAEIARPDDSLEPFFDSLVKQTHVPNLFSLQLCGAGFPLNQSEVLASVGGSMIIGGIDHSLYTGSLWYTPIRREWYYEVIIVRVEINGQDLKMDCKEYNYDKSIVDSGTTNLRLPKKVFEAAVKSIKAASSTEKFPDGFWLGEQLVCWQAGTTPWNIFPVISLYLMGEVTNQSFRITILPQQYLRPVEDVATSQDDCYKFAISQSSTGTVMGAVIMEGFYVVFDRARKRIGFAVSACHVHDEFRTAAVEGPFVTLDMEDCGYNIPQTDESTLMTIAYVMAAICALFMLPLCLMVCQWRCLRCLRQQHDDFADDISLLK
compound,measurement,setting,value
OC(CNc1ccccc1)Cn1c2ccc(Br)cc2c2cc(Br)ccc21 (stereo not shown) [Example 45 Compound],brain level in embryos and weanling pups,"[1]; 20 mg/kg daily oral to pregnant or lactating females, LC/MS",≥ 1350 nM
same,thickness of hippocampal subfields,"[1]; 20 mg/kg/d from embryonic day 14 until 3 months of age, npas3−/− mice",selectively increased the thickness of the dentate gyrus granular cell layer
same,"cleaved caspase 3 (CCSP3) staining, apoptosis in the dentate gyrus","[1]; 20 mg/kg/d p.o. for 12 days, NPAS3-deficient mice",significantly reduced CCSP3 staining in the dentate gyrus; also recorded: statistically significant reduction in CCSP3 staining; also recorded: inhibited
same,dendritic arborization of dentate gyrus granular neurons (Golgi-Cox),"[1]; extended daily treatment 20 mg/kg/d, npas3−/− mice",robustly repaired morphological deficits in the dendritic branching; also recorded: enhanced dendritic arborization
same,synaptic responses (fEPSP) in hippocampal slices,"[1]; extended treatment, npas3−/− mice",normalized synaptic responses in the dentate gyrus but not the CA1 region
same,increase of neurogenesis (BrdU) in npas3−/− mice,[1]; oral 20 mg/kg/d for 12 days,roughly 4 fold
same,health of treated animals,"[1]; prolonged administration 20 mg/kg, relative to vehicle-only controls","did not affect any aspect of the health of mothers, embryos, weanlings or young adult mice"
OC(CNc1cccc2ccccc12)Cn1c2ccc(Cl)cc2c2cc(Cl)ccc21 (stereo not shown) [Example P7C3-S184],BACE1 inhibition,[2],reported as a β-secretase (BACE1) inhibitor
OC(CNc1ccccc1)Cn1c2ccc(Br)cc2c2cc(Br)ccc21 (stereo not shown) [Example P7C3],accelerating rotarod performance,[3]; [4],significantly improved performance in the accelerating rotarod task
same,age at neurological severity score of 2,[3]; [4],significantly delays the age at which G93A-SOD1 mice attain a neurological severity score of 2
same,disease progression: time point of drop to 10% below maximum weight,[3]; [4],slows disease progression
same,walking gait (ink footprint),[3]; [4],preservation of normal gait on day 118
same,survival,[3]; 20 mg/kg/day from 40 days of age,did not translate into increased survival of the animals

# From US10183011B2, “Anti-depression compounds” (Board of Regents of the University of Texas System, priority 2009, dated 2019)
